Structures can show the parent of a compound that is named as a salt.

The IC50 is the concentration at which inhibition is half-maximal.

One test addresses recombinant human PARP2 (Homo sapiens, UniProt Q9UGN5). Nature of the test: PARP2 fluorescence polarization binding assay. Conditions: for inhibition at 10 µM: read-out: PARP2 % inh at 10 μM; for IC50: binding IC50, GST-tagged PARP2 20 nM, PARPi-FL 3 nM. The protocol:
Compounds of the present disclosure were tested in a PARP2 fluorescence polarization binding assay at Pharmaron (Beijing, P.R. China). In this biochemical assay, binding of test compound to recombinant human PARP2 reduces the amount of binding of a fluorescent probe, and consequently reduces the detected level of fluorescence polarization. Test compound stock solutions were prepared in DMSO and then serially diluted into 10 concentrations by 3-fold dilution in a 384-well plate using a TECAN EVO200. Alternatively, a single concentration was prepared. 60 nL of each dilution was transferred to the plate using an Echo550 (Labcyte), and then 10 μL 40 nM GST-tagged PARP2 (BPS Bioscience, Cat #80502), diluted in assay buffer (50 mM Tris pH 8.0, 0.001% Triton X-100, 10 mM MgCl2, 150 mM NaCl), was added to the plate. After a centrifugation at 1000 rpm for 1 min, the assay plate was incubated for 30 min at RT. 10 μL 6 nM PARPi-FL (TOCRIS, Cat #6461), diluted using assay buffer, was then added to the plate. […] After a centrifugation at 1000 rpm for 1 min, the assay plate was incubated for 4 h at RT. Samples in each well were read using an Envision instrument (Perkin-Elmer; Ex=480 nm Em=FITC FP-P pol 535 nm & FITC FP-S pol 535 nm). […] Binding IC50 values were calculated using XLFit (equation 201: […])^D))), where A=bottom, B=top, C=IC50, and D=slope) with a floating top and bottom for curves.

A further test concerns the target PARP1 (Homo sapiens, UniProt P09874). Nature of the test: PARP1 fluorescence polarization binding assay. Conditions: binding IC50, GST-tagged PARP1 20 nM, PARPi-FL 3 nM. The protocol:
Compounds of the present disclosure were tested in a PARP1 fluorescence polarization binding assay at Pharmaron (Beijing, P.R.China). In this biochemical assay, binding of test compound to recombinant human PARP1 reduces the amount of binding of a fluorescent probe, and consequently reduces the detected level of fluorescence polarization. Test compound stock solutions were prepared in DMSO and then serially diluted into 10 concentrations by 3-fold dilution in a 384-well plate using a TECAN EVO200. 60 nL of each dilution was transferred to the plate using an Echo550 (Labcyte), and then 10 μL 40 nM GST-tagged PARP1 (BPS Bioscience, Cat #80501), diluted in assay buffer (50 mM Tris pH 8.0, 0.001% Triton X-100, 10 mM MgCl2, 150 mM NaCl), was added to the plate. After a centrifugation at 1000 rpm for 1 min, the assay plate was incubated for 30 min at RT. 10 μL 6 nM PARPi-FL (TOCRIS, Cat #6461), diluted using assay buffer, was then added to the plate. The final concentrations of PARP1 and PARPi-FL were 20 nM and 3 nM, respectively, in a total volume of 20 μL. After a centrifugation at 1000 rpm for 1 min, the assay plate was incubated for 4 h at RT. Samples in each well were read using an Envision instrument (Perkin-Elmer; Ex=480 nm Em=FITC FP-P pol 535 nm & FITC FP-S pol 535 nm). Percent inhibition was calculated from mP values using Inhibition (%)=[1−(mPc−mPL)/(mPH−mPL)]×100%, where mPc, mPL, and mPH are the mP values of test compound, Low controls, and High controls, respectively. Binding IC50 values were calculated using XLFit (equation 201: y=A+((B−A)/(1+((x/C)^D))), where A=bottom, B=top, C=IC50, and D=slope) with a floating top and bottom for curves. Binding IC50 values are shown in Table A and are presented in ranges, in which “+++”<100 nM, 100 nM≤“++”<3000 nM, and “+”≥3000 nM.
On the technique in general: Fluorescence polarisation rises when a labelled molecule tumbles more slowly, as on binding a larger partner.

The test system of test [1] is DLD-1 wild-type colorectal adenocarcinoma cells. The test is described as follows: Cell viability assay (Cell Titer-Glo), DLD-1 wild-type. It counts as cell-based. To be noted: Homo sapiens, DLD-1, 168 h, 7 days incubation; for inhibition at 10 µM: read-out: DLD-1 wild-type % inh at 10 μM; for IC50: 50 cells/well. The protocol: (§1) Compounds of the present disclosure were tested for their effects on the viability of cancer cells. DLD-1 wild-type and DLD-1 BRCA2(−/−) colorectal adenocarcinoma cells, an isogenic pair of cell lines differing in the presence and absence, respectively, of both BRCA2 alleles, were used. The cells were harvested during the logarithmic growth period, counted, and seeded at 50 cells/well for DLD-1 wild-type and 200 cells/well for DLD-1 BRCA2(−/−) in a 384-well cell culture plate. After seeding, cells were incubated at 37° C., 5% CO2 overnight. Cells were treated with serially diluted test compounds at 10 concentrations (e.g., from 1.5 nM-30 μM) for generation of dose response curves, or at a single concentration. The plate was further incubated for another 7 days in a humidified incubator at 37° C. and 5% CO2. Cell viability was assessed by luminescence measurement after addition of Cell Titer-Glo reagent (Promega, Madison, Wis.) according to the manufacturer's instructions. Cell viability IC50 values were calculated using XLFit, equation 201: y=A+((B−A)/(1+((x/C)^D))), where A=bottom, B=top, C=IC50, and D=slope. IC50 values are shown in Table B and are presented in ranges, in which “+++”<300 nM, 300 nM≤“++”<3000 nM, and “+”≥3000 nM. Values for percent inhibition at 10 μM are also shown in Table B and are presented in ranges, in which “***”≥67%, 33%≤“**”<67%, and “*”<33%. Effects of the test compounds on the viability of other cell lines such as MDA-MB-436, MDA-MB-231, SUM149PT, HCC1395, and UWB1.289 are determined in an analogous method.

Test [2] has as its system DLD-1 BRCA2(−/−) colorectal adenocarcinoma cells. The test is described as follows: Cell viability assay (Cell Titer-Glo), DLD-1 BRCA2(−/−). To be noted: Homo sapiens, DLD-1, 168 h; 7 days incubation, 200 cells/well. Format: cell-based. The protocol:
as §1
(In general: In ATP-based viability assays light output follows the ATP content of the culture.)

Sequence of recombinant human PARP2 (Q9UGN5 whole entry): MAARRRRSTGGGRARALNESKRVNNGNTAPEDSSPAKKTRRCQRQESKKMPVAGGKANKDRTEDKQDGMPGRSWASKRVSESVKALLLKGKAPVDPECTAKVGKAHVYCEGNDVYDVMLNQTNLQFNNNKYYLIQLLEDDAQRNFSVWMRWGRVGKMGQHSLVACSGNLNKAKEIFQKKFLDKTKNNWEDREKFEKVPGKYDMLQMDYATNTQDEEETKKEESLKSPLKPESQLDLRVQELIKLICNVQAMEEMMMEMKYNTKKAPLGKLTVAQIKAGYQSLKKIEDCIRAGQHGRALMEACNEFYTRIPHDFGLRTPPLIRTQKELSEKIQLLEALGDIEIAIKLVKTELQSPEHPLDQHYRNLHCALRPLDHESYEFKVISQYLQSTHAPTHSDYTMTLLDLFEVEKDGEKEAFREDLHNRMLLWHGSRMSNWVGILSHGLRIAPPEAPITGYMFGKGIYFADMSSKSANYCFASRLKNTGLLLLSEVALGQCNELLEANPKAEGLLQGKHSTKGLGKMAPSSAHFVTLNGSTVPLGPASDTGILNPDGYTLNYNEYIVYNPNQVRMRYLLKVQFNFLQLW
Sequence of PARP1 (P09874 whole entry): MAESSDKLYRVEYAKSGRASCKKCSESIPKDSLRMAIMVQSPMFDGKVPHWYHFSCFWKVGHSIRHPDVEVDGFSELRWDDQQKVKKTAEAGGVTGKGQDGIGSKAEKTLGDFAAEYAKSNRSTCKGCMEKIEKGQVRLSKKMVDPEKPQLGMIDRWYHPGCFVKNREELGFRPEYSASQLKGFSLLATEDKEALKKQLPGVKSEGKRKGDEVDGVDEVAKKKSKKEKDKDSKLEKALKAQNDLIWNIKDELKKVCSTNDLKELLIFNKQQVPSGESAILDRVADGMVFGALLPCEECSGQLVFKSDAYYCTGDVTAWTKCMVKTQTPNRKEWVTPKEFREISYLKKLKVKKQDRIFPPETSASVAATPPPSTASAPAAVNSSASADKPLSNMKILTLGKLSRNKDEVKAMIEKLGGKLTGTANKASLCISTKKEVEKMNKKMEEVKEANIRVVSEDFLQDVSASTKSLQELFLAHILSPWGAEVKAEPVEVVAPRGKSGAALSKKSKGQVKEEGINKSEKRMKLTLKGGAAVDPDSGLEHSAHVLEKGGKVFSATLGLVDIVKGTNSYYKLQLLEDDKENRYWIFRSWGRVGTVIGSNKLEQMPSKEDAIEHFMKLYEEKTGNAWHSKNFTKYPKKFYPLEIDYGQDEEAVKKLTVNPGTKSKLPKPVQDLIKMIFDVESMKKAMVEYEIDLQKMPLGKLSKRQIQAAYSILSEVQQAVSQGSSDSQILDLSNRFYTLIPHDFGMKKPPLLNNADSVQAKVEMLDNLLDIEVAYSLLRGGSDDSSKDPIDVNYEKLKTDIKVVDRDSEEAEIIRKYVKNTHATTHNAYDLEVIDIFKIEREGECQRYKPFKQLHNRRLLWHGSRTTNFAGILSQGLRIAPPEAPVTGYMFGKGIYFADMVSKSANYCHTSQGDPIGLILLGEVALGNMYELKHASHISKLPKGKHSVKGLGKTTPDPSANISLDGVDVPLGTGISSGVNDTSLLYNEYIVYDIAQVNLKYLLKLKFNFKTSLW

For `CNC(=O)c1ccc(N2CCN(Cc3ccc4c(=O)[nH]c(=O)[nH]c4c3)CC2)cn1` [Compound 1, 5-(4-((2,4-dioxo-1,2,3,4-tetrahydroquinazolin-7-yl)methyl)piperazin-1-yl)-N-methylpicolinamide formate], the inhibition at 10 µM on recombinant human PARP2 was 33 to 67%. At PARP1, this compound gave an IC50 of 0.1 to 3 µM.
`CNC(=O)c1ccc(N2CCN(Cc3ccc4c(=O)n(C)c(=O)[nH]c4c3)CC2)cn1` [Compound 2]: the inhibition at 10 µM was less than 33% in test [1] and 33 to 67% on recombinant human PARP2. Besides, the IC50 in test [1] was more than 3 µM; at recombinant human PARP2, more than 3 µM; on PARP1, less than 0.1 µM; in test [2] it was 0.3 to 3 µM.
Turning to `CNC(=O)c1ccc(N2CCN(Cc3ccc4c(=O)n(C(C)C)c(=O)[nH]c4c3)CC2)cn1` [Compound 4, 5-(4-((3-isopropyl-2,4-dioxo-1,2,3,4-tetrahydroquinazolin-7-yl)methyl)piperazin-1-yl)-N-methylpicolinamide], the inhibition at 10 µM (in test [1]; on recombinant human PARP2) was 33 to 67% each time. Moreover, the IC50 is more than 3 µM in test [1], more than 3 µM at recombinant human PARP2, less than 0.1 µM on PARP1 and more than 3 µM in test [2].
On to `CNC(=O)c1ccc(N2CCN(Cc3ccc4c(=O)n(C5CC5)c(=O)[nH]c4c3)CC2)cn1` [Compound 5, 5-(4-((3-cyclopropyl-2,4-dioxo-1,2,3,4-tetrahydroquinazolin-7-yl)methyl)piperazin-1-yl)-N-methylpicolinamide], for which the inhibition at 10 µM is less than 33% in test [1] and 33 to 67% at recombinant human PARP2. Also, the IC50 in test [1] was more than 3 µM; at recombinant human PARP2 it was more than 3 µM; at PARP1, less than 0.1 µM; in test [2] it was more than 3 µM.
`CCn1c(=O)[nH]c2cc(CN3CCN(c4ccc(C(=O)NC)nc4)CC3)ccc2c1=S` [Compound 40, 5-(4-((3-ethyl-2-oxo-4-thioxo-1,2,3,4-tetrahydroquinazolin-7-yl)methyl)piperazin-1-yl)-N-methylpicolinamide formate]: the inhibition at 10 µM in test [1] was less than 33%; on recombinant human PARP2, 33 to 67%. The IC50 in test [1] is more than 3 µM; at recombinant human PARP2, more than 3 µM; on PARP1, less than 0.1 µM; in test [2] it was 0.3 to 3 µM.
As for `CCn1c(=O)[nH]c2cc(C(=O)N3CCN(c4ccc(C(=O)NC)nc4)CC3)ccc2c1=O` [Compound 130, 5-(4-(3-ethyl-2,4-dioxo-1,2,3,4-tetrahydroquinazoline-7-carbonyl)piperazin-1-yl)-N-methylpicolinamide], on recombinant human PARP2, the IC50 is more than 3 µM and the inhibition at 10 µM lay in the range of 33 to 67%. This compound also showed an IC50 at PARP1 of less than 0.1 µM.
On PARP1, `CCn1c(=O)[nH]c2sc(CN3CCN(c4ccc(C(=O)NC)nc4C)CC3)cc2c1=O` [Compound 186] had an IC50 of less than 0.1 µM.
Same read-out and setting: the same measure for `CCn1c(=O)[nH]c2cc(CN3CCN(c4ccc(C(=O)NC)nc4C)CC3=O)sc2c1=O` [Compound 305, 5-(4-((3-ethyl-2,4-dioxo-1,2,3,4-tetrahydrothieno[3,2-d]pyrimidin-6-yl)methyl)-3-oxopiperazin-1-yl)-N,6-dimethylpicolinamide]: less than 0.1 µM.
Still for that read-out and setting: the result for `CCn1c(=O)[nH]c2cc(CN3CCN(c4ccc(-n5cccn5)nc4C)CC3)sc2c1=O` [Compound 306, 3-ethyl-6-({4-[2-methyl-6-(pyrazol-1-yl)pyridin-3-yl]piperazin-1-yl}methyl)-1H-thieno[3,2-d]pyrimidine-2,4-dione] reads less than 0.1 µM.
As for `CCn1c(=O)[nH]c2cc(CN3CCN(c4ccc(C(=O)NC#N)nc4C)CC3)sc2c1=O` [Compound 313, N-cyano-5-(4-((3-ethyl-2,4-dioxo-1,2,3,4-tetrahydrothieno[3,2-d]pyrimidin-6-yl)methyl)piperazin-1-yl)-6-methylpicolinamide, ammonia salt], the IC50 was more than 3 µM on recombinant human PARP2 and 0.1 to 3 µM on PARP1. Besides, at recombinant human PARP2, the inhibition at 10 µM was 33 to 67%.
On PARP1, `CCn1c(=O)[nH]c2cc(CN3CC(Oc4ccc(C(=O)NC)nc4C)C3)sc2c1=O` [Compound 328] had an IC50 of 0.1 to 3 µM.
With `CCn1c(=O)[nH]c2cc(CN3CCN(c4ccc(-c5ncc[nH]5)nc4C)CC3)sc2c1=O` [Compound 357, 64(4-(6-(1H-imidazol-2-yl)-2-methylpyridin-3-yl)piperazin-1-yl) methyl)-3-ethylthieno[3,2-d]pyrimidine-2,4(1H,3H)-dione formate], on PARP1, the IC50 is less than 0.1 µM.
Regarding `CCn1c(=O)[nH]c2cc(CN3CCN(c4ccc(C(=O)N5CCCC5)nc4C)CC3)sc2c1=O` [Compound 526, 3-ethyl-6-[(4-{2-methyl-6-[(pyrrolidin-1-yl)carbonyl]pyridin-3-yl}piperazin-1-yl)methyl]-1H-thieno[3,2-d]pyrimidine-2,4-dione], the IC50 at PARP1 is more than 3 µM.
The same measure, in the same setting: the result for `CCn1c(=O)[nH]c2cc(CN3CCN(c4ccc(NC(C)=O)nc4C)CC3)sc2c1=O` [Compound 528, N-(5-(4-((3-ethyl-2,4-dioxo-1,2,3,4-tetrahydrothieno[3,2-d]pyrimidin-6-yl)methyl)piperazin-1-yl)-6-methylpyridin-2-yl)acetamide] reads less than 0.1 µM; that for `CCn1c(=O)[nH]c2cc(CN3CCN(c4ccc(CNC)nc4C)CC3)sc2c1=O` [Compound 529, 3-ethyl-6-((4-(2-methyl-6-((methylamino)methyl)pyridin-3-yl)piperazin-1-yl)methyl)thieno[3,2-d]pyrimidine-2,4(1H,3H)-dione], more than 3 µM; that for `CCn1c(=O)[nH]c2sc(CN3CCN(c4ccc(C(=O)NC)nc4F)CC3)cc2c1=O` [Compound 530, 5-(4-((3-ethyl-2,4-dioxo-1,2,3,4-tetrahydrothieno[2,3-d]pyrimidin-6-yl)methyl)piperazin-1-yl)-6-fluoro-N-methylpicolinamide bis formate], less than 0.1 µM.
Compound `CCn1c(=O)[nH]c2cc(CN3CCN(c4ccc(C#N)cn4)CC3)sc2c1=O` [Compound 531] displayed an IC50 at PARP1 of less than 0.1 µM.

The values above are taken from US20240132449A1, “HETEROCYCLIC COMPOUNDS AND METHODS OF USE THEREOF” (1cBio, Inc., priority 2022, published 2024).
